The experiment concerns the target SMYD2 (Homo sapiens (Human), UniProt Q9NRG4). Nature of the experiment: Scintillation Proximity Assay (SPA) for detection of SMYD2 enzymatic inhibition. The experiment is classed as biochemical. To be noted: methylation of biotinylated p53 Peptide, 3H-SAM, full length SMYD2; read-out: IC50 [mol/l] (SPA Assay). As for the experimental part:
1.1 Scintillation Proximity Assay (SPA) for Detection of SMYD2 Enzymatic Inhibition
The SMYD2 full length enzyme was produced in-house by expression (with an N-terminal 6×His tag) in E. coli and purification by affinity chromatography on a Ni-NTA Sepharose column followed by a size exclusion chromatography step on a Superdex 200 16/60 column (GE Healthcare).
To this end, 100-fold concentrated compound solutions (in DMSO) were previously prepared by serial dilution (1:3.4) of 2 mM stocks in a clear low volume 384-well source microtiter plate (Greiner Bio-One), from which 50 nl of compound solutions were transferred into a white low volume test microtiter plate from the same supplier. […] The samples were then incubated for 15 min at 22° C. to allow pre-equilibration of the putative enzyme-inhibitor complexes before the start of the methylation reaction, which was initiated by the addition of 2.5 μl 2-fold concentrated solution (in assay buffer) of titrated S-Adenosyl-L-Methionine (3H-SAM, Perkin Elmer, final concentration: 60 nM) and p53 Peptide substrate (final concentration: 1.0 μM). The resulting mixture (5 μl final volume) was shortly centrifuged (2 min., 1500 rpm) and incubated at 22° C. during 30 min. Thereupon the reaction was stopped by adding 3 μl of Streptavidin PS SPA imaging beads (Perkin Elmer, final concentration of 3.12 μg/μl) and “cold” SAM (AK Scientific, 25 μM final concentration) for non-specific binding reduction. Plates containing the stopped reaction were sealed with transparent adhesive foil (Perkin Elmer), centrifuged (2 min., 1500 rpm), and further incubated for—at least—1 h at RT (or overnight at 4° C.) in order to allow the SPA signals to develop. […] IC50 values were calculated by fitting the normalized inhibition data to a 4-parameter logistic equation using the “Screener” analysis software from Genedata.
Chain of SMYD2 (Q9NRG4 whole entry): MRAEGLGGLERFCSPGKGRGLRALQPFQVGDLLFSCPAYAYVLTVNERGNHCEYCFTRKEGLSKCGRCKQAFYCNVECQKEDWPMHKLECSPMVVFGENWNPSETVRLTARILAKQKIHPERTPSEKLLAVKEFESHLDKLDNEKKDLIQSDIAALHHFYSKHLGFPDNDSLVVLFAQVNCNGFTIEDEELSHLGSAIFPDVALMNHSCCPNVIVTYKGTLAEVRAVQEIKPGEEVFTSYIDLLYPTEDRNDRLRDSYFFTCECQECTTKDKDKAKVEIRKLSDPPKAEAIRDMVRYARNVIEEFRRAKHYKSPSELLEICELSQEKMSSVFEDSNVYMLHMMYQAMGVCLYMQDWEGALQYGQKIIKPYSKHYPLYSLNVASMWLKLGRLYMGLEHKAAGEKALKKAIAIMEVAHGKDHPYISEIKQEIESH
With `C[C@H](O)C(=O)NC1CN(/C(=N\C#N)Nc2cccc(OC(F)F)c2)N=C1c1ccc(Cl)c(Cl)c1` (mixture of isomers) [Example 1, (2S)—N-[1-{N′-cyano-N-[3-(difluoromethoxy)phenyl]carbamimidoyl}-3-(3,4-dichlorophenyl)-4,5-dihydro-1H-pyrazol-4-yl]-2-hydroxypropanamide], the IC50 was 518 nM.

In the case of `CN(C(=O)CO)C1CN(/C(=N\C#N)Nc2cccc(OC(F)F)c2)N=C1c1ccc(Cl)c(Cl)c1` (racemic) [Example 2, Rac-N-[1-{N′-cyano-N-[3-(difluoromethoxy)phenyl]carbamimidoyl}-3-(3,4-dichlorophenyl)-4,5-dihydro-1H-pyrazol-4-yl]-2-hydroxy-N-methylacetamide], the IC50 was 83.3 nM.

Turning to `CCN(C(=O)CO)C1CN(/C(=N\C#N)Nc2cccc(OC(F)(F)F)c2F)N=C1c1ccc(Cl)c(Cl)c1` (racemic) [Example 12, Rac-N-[1-{N′-cyano-N-[2-fluoro-3-(trifluoromethoxy)phenyl]carbamimidoyl}-3-(3,4-dichlorophenyl)-4,5-dihydro-1H-pyrazol-4-yl]-N-ethyl-2-hydroxyacetamide], the IC50 was 138 nM.

Take `CCN(C(=O)CO)C1CN(/C(=N\C#N)Nc2ccc(F)c(OC(F)(F)F)c2)N=C1c1ccc(Cl)c(Cl)c1` (racemic) [Example 14, Rac-N-[1-{N′-cyano-N-[4-fluoro-3-(trifluoromethoxy)phenyl]carbamimidoyl}-3-(3,4-dichlorophenyl)-4,5-dihydro-1H-pyrazol-4-yl]-N-ethyl-2-hydroxyacetamide]: the IC50 is 147 nM.

Consider `CCN(C(=O)CN)C1CN(/C(=N\C#N)Nc2cccc(OCCN(C)C)c2)N=C1c1ccc(Cl)c(Cl)c1` (racemic) [Example 17, Rac-N-[1-(N′-cyano-N-{3-[2-(dimethylamino)ethoxy]phenyl}carbamimidoyl)-3-(3,4-dichlorophenyl)-4,5-dihydro-1H-pyrazol-4-yl]-N-ethylglycinamide], for which the IC50 was 59.5 nM.

For the compound `CCN(C(=O)CO)C1CN(/C(=N\C#N)Nc2ccc(F)c(OC(F)F)c2)N=C1c1ccc(Cl)c(Cl)c1` (racemic) [Example 22, Rac-N-[1-{N′-cyano-N-[3-(difluoromethoxy)-4-fluorophenyl]carbamimidoyl}-3-(3,4-dichlorophenyl)-4,5-dihydro-1H-pyrazol-4-yl]-N-ethyl-2-hydroxyacetamide], the IC50 stood at 64.8 nM.

With `CCN(C(=O)CO)C1CN(/C(=N\C#N)Nc2cccc(OC(F)F)c2F)N=C1c1ccc(Cl)c(Cl)c1` (racemic) [Example 23, Rac-N-[1-{N′-cyano-N-[3-(difluoromethoxy)-2-fluorophenyl]carbamimidoyl}-3-(3,4-dichlorophenyl)-4,5-dihydro-1H-pyrazol-4-yl]-N-ethyl-2-hydroxyacetamide], the IC50 was found to be 67.4 nM.

Take `CCN(C(=O)CO)C1CN(/C(=N\C#N)Nc2cc(F)cc(OC(F)F)c2)N=C1c1ccc(Cl)c(Cl)c1` (racemic) [Example 24, Rac-N-[1-{N′-cyano-N-[3-(difluoromethoxy)-5-fluorophenyl]carbamimidoyl}-3-(3,4-dichlorophenyl)-4,5-dihydro-1H-pyrazol-4-yl]-N-ethyl-2-hydroxyacetamide]: the IC50 came to 63.1 nM.

Turning to `CCN(C(=O)CO)C1CN(/C(=N\C#N)Nc2cc(OC(F)(F)F)ccc2OC)N=C1c1ccc(Cl)c(Cl)c1` (racemic) [Example 26, Rac-N-[1-{N′-cyano-N-[2-methoxy-5-(trifluoromethoxy)phenyl]carbamimidoyl}-3-(3,4-dichlorophenyl)-4,5-dihydro-1H-pyrazol-4-yl]-N-ethyl-2-hydroxyacetamide], the IC50 worked out at 30.6 nM.

Take `CCN(C(=O)CO)C1CN(/C(=N\C#N)Nc2cc(C(F)(F)F)ccc2OC(F)(F)F)N=C1c1ccc(Cl)c(Cl)c1` (racemic) [Example 28, Rac-N-[1-{N′-cyano-N-[2-(trifluoromethoxy)-5-(trifluoromethyl)phenyl]carbamimidoyl}-3-(3,4-dichlorophenyl)-4,5-dihydro-1H-pyrazol-4-yl]-N-ethyl-2-hydroxyacetamide]: the IC50 was 140 nM.

In the case of `CCN(C(=O)CO)C1CN(/C(=N\C#N)Nc2cc(C(F)(F)F)ccc2OCCN2CCCC2)N=C1c1ccc(Cl)c(Cl)c1` (racemic) [Example 30, Rac-N-[r-(N′-cyano-N-[2-[2-(pyrrolidin-1-yl)ethoxy]-5-(trifluormethyl)phenyl]carbamimidoyl)-3-(3,4-dichlorophenyl)-4,5-dihydro-1H-pyrazol-4-yl]-N-ethyl-2-hydroxyacetamide], the IC50 is 15.8 nM.

With `CCN(C(=O)CO)C1CN(/C(=N\C#N)Nc2cccc(OC(F)(F)F)c2)N=C1c1ccc(Cl)c(F)c1` (racemic) [Example 35, Rac-N-[3-(4-chloro-3-fluorophenyl)-1-{N′-cyano-N-[3-(trifluoromethoxy)phenyl]-carbamimidoyl}-4,5-dihydro-1H-pyrazol-4-yl]-N-ethyl-2-hydroxyacetamide], the IC50 came to 157 nM.

In the case of `CCN(C(=O)CO)C1CN(/C(=N\C#N)Nc2ccc(Cl)c(OC(F)F)c2)N=C1c1ccc(Cl)c(Cl)c1` (single isomer, unassigned) [Example 11.1, N-[1-{N-[4-chloro-3-(difluoromethoxy)phenyl]-N′-cyanocarbamimidoyl}-3-(3,4-dichlorophenyl)-4,5-dihydro-1H-pyrazol-4-yl]-N-ethyl-2-hydroxyacetamide], the IC50 was found to be 44.1 nM.

Turning to `CCN(C(=O)CO)C1CN(/C(=N\C#N)Nc2ccc(Cl)c(OC(F)F)c2)N=C1c1ccc(Cl)c(Cl)c1` (single isomer, unassigned) [Example 11.2, N-[1-{N-[4-chloro-3-(difluoromethoxy)phenyl]-N′-cyanocarbamimidoyl}-3-(3,4-dichlorophenyl)-4,5-dihydro-1H-pyrazol-4-yl]-N-ethyl-2-hydroxyacetamide], the IC50 turned out to be 2980 nM.

Consider `CCN(C(=O)CO)C1CN(/C(=N\C#N)Nc2cccc(OC(F)(F)F)c2F)N=C1c1ccc(Cl)c(Cl)c1` (single isomer, unassigned) [Example 12.1, N-[1-{N′-cyano-N-[2-fluoro-3-(trifluoromethoxy)phenyl]carbamimidoyl}-3-(3,4-dichlorophenyl)-4,5-dihydro-1H-pyrazol-4-yl]-N-ethyl-2-hydroxyacetamide], for which the IC50 worked out at 2660 nM.

In the case of `CCN(C(=O)CO)C1CN(/C(=N\C#N)Nc2cccc(OC(F)(F)F)c2F)N=C1c1ccc(Cl)c(Cl)c1` (single isomer, unassigned) [Example 12.2, N-[1-{N′-cyano-N-[2-fluoro-3-(trifluoromethoxy)phenyl]carbamimidoyl}-3-(3,4-dichlorophenyl)-4,5-dihydro-1H-pyrazol-4-yl]-N-ethyl-2-hydroxyacetamide], the IC50 is 54.1 nM.

In the case of `CCN(C(=O)CO)C1CN(/C(=N\C#N)Nc2cc(F)cc(OC(F)F)c2)N=C1c1ccc(Cl)c(Cl)c1` (single isomer, unassigned) [Example 24.1, N-[1-{N′-cyano-N-[3-(difluoromethoxy)-5-fluorophenyl]carbamimidoyl}-3-(3,4-dichlorophenyl)-4,5-dihydro-1H-pyrazol-4-yl]-N-ethyl-2-hydroxyacetamide], the IC50 stood at 2510 nM.

On to `CCN(C(=O)CO)C1CN(/C(=N\C#N)Nc2cc(F)cc(OC(F)F)c2)N=C1c1ccc(Cl)c(Cl)c1` (single isomer, unassigned) [Example 24.2, N-[1-{N′-cyano-N-[3-(difluoromethoxy)-5-fluorophenyl]carbamimidoyl}-3-(3,4-dichlorophenyl)-4,5-dihydro-1H-pyrazol-4-yl]-N-ethyl-2-hydroxyacetamide], for which the IC50 amounted to 19.2 nM.

For the compound `CCN(C(=O)[C@H](C)N)C1CN(/C(=N\C#N)Nc2cccc(OC(F)F)c2)N=C1c1ccc(Cl)c(C)c1` (single isomer, unassigned) [Example 34.1, N-[3-(4-chloro-3-methylphenyl)-1-{N′-cyano-N-[3-(difluoromethoxy)phenyl]carbamimidoyl}-4,5-dihydro-1H-pyrazol-4-yl]-N-ethyl-L-alaninamide], the IC50 came to 15400 nM.

In the case of `CCN(C(=O)[C@H](C)N)C1CN(/C(=N\C#N)Nc2cccc(OC(F)F)c2)N=C1c1ccc(Cl)c(C)c1` (single isomer, unassigned) [Example 34.2, N-[3-(4-chloro-3-methylphenyl)-1-{N′-cyano-N-[3-(difluoromethoxy)phenyl]carbamimidoyl}-4,5-dihydro-1H-pyrazol-4-yl]-N-ethyl-L-alaninamide], the IC50 came out at 488 nM.

`CCN(C(=O)[C@H](N)CC(C)C)C1CN(/C(=N\C#N)Nc2cccc(OC(F)(F)F)c2)N=C1c1ccc(Cl)c(Cl)c1` (stereo partly drawn) [Example 39, N-[1-{N′-cyano-N-[3-(trifluoromethoxy)phenyl]carbamimidoyl}-3-(3,4-dichlorophenyl)-4,5-dihydro-1H-pyrazol-4-yl]-N-ethyl-D-leucinamide]: the IC50 came to 2400 nM.

The values are drawn from patent publication US10023539B2, “Aryl-cyanoguanidine compounds” (Bayer Pharma Aktiengesellschaft, priority 2014, dated 2018).
